Source: PMC5298231, “The Malaria Parasite's Lactate Transporter PfFNT Is the Target of Antiplasmodial Compounds Identified in Whole Cell Phenotypic Screens” (PLoS Pathogens, 2017)

Assays:
[1] = test system: isolated 3D7 P. falciparum trophozoites; assay: L-[14C]lactate uptake by isolated 3D7 trophozoites; settings: pH 6.1, 4°C, 20 s
[2] = ref [36]; cited from earlier work
[3] = test system: PfCRT (from the chloroquine-resistant Dd2 strain); assay: [3H]chloroquine uptake by Xenopus oocytes expressing PfCRT; type: cell-based, Plasmodium falciparum; settings: 1 μM and 4 μM; pH 5.5
From the text: (§1) (PfCRT; from the chloroquine-resistant Dd2 strain) and on [^3H]hypoxanthine transport by oocytes expressing the P. falciparum equilibrative nucleoside/nucleobase transporter PfENT1 [27, 28].
The oocyte expression vectors containing PfFNT, PfENT1 and PfCRT were made previously. The Gly107Ser mutant form of PfFNT was generated through site-directed mutagenesis of the oocyte expression vector containing wild-type (3D7) PfFNT using primers 9 and 10 (S2 Table). Oocytes were harvested from adult female Xenopus laevis frogs and prepared as described previously. cRNA was made using the mMessage mMachine T7 transcription kit and the MEGAclear kit (Ambion) and microinjected into oocytes as outlined elsewhere. […] The uptake of radiolabelled substrates was measured 2–5 days post-injection at 27.5°C in ND96 buffer (containing 96 mM NaCl, 2 mM KCl, 1 mM MgCl2, 1.8 mM CaCl2, 10 mM MES and 10 mM Tris-base; pH-adjusted to the value specified in the relevant Figure legends). […] The oocytes were then transferred to separate wells of a 96-well plate, lysed with 10% SDS, and the radioactivity measured as described previously.
The data are averaged from four to five independent experiments (performed using oocytes from different frogs) and are shown + SEM. In B, the uptake of [^3H]hypoxanthine (0.36 μM) was measured over 30 min at pH 6.0. […]

[4] = test system: MMV007839-selected culture B (PfFNT Gly107Ser); assay: Parasite proliferation assay, MMV007839-selected culture B; type: cell-based, Plasmodium falciparum; settings: MMV007839-selected culture B; mean ± SEM; read-out: IC50 value, growth inhibition
Protocol: (§2) Parasite proliferation was measured in 96-well plates using a fluorescent DNA-intercalating dye. The assays were initiated with erythrocytes infected with predominantly ring-stage parasites, and the starting parasitaemia was 0.5–1% and the haematocrit was 1%.
(§3) For MMV007839-selected culture A, the drug concentration was increased by 5 nM increments on Day 18, Day 21, and every two days thereafter. […] The cultures were provided with fresh medium and blood and diluted to reduce the parasitaemia as needed.

Dd2 parental parasites = assay: L-[14C]lactate uptake by isolated Dd2 parental parasites; settings: read-out: IC50, inhibition of L-[14C]lactate uptake; Dd2 (parental) parasites; pH 6.1, 4°C, 20 s; mean ± SEM
non-injected oocytes = type: cell-based, Xenopus laevis; settings: full range of inhibitor concentrations
PfFNT^Gly107Ser = target: T1, PfFNT^Gly107Ser (Plasmodium falciparum, UniProt O77389, G107S); assay: PfFNT-mediated L-[14C]lactate uptake by Xenopus oocytes expressing PfFNT Gly107Ser; type: cell-based; settings: PfFNT Gly107Ser in Xenopus oocytes; pH 6.4, 27.5°C, 10 min; mean ± SEM, n = 4; read-out: IC50, inhibition of PfFNT-mediated L-[14C]lactate transport
T1 construct: expressed in transfected cells; host or cells: Xenopus laevis oocytes (cRNA microinjected, 30 ng)
T1 sequence (O77389 1-309 G107S): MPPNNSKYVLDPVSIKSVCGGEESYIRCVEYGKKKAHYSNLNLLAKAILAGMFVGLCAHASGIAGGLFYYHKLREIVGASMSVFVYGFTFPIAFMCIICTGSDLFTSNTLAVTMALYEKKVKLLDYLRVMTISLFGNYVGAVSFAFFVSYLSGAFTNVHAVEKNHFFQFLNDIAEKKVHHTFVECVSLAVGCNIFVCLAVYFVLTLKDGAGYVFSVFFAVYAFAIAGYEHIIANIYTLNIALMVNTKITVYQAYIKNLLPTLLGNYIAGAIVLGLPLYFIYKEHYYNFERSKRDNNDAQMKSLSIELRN
Protocol: (§4) The PfFNT-mediated uptake of L-[^14C]lactate by oocytes expressing native PfFNT (black symbols) or oocytes expressing PfFNT^Gly107Ser (white symbols) was measured in the presence of a range of different concentrations of MMV007839 (A) and MMV000972 (B). […] To enable a visual comparison between the native PfFNT and PfFNT^Gly107Ser datasets, only part of the concentration range used for the latter is shown in the main panels. The insets show the data obtained for PfFNT^Gly107Ser over the full concentration range tested. In all cases, the data are averaged from four independent experiments (using oocytes from different frogs) and are shown ± SEM. The uptake was measured at 27.5°C over 10 min at pH 6.4 using 2.7 μM L-[^14C]lactate and 600 μM unlabelled L-lactate.
(§5) The oocyte expression vectors containing PfFNT, PfENT1 and PfCRT were made previously. […] The uptake of radiolabelled substrates was measured 2–5 days post-injection at 27.5°C in ND96 buffer (containing 96 mM NaCl, 2 mM KCl, 1 mM MgCl2, 1.8 mM CaCl2, 10 mM MES and 10 mM Tris-base; pH-adjusted to the value specified in the relevant Figure legends). […] The oocytes were then transferred to separate wells of a 96-well plate, lysed with 10% SDS, and the radioactivity measured as described previously.

Dd2 parent parasites = assay: Parasite proliferation assay, Dd2 parent; type: cell-based, Plasmodium falciparum; settings: Dd2 parent; mean ± SEM; read-out: IC50 value, growth inhibition
Protocol: Parasite proliferation was measured in 96-well plates using a fluorescent DNA-intercalating dye [45]. The assays were initiated with erythrocytes infected with predominantly ring-stage parasites, and the starting parasitaemia was 0.5–1% and the haematocrit was 1%.

[5] = test system: 3D7 P. falciparum trophozoites; assay: Cytosolic pH (pHcyt) measurement in BCECF-loaded saponin-isolated trophozoites
native PfFNT = target: T2, native PfFNT (Plasmodium falciparum, UniProt O77389); type: cell-based; settings: native PfFNT in Xenopus oocytes; pH 6.4, 27.5°C, 10 min; mean ± SEM, n = 4; read-out: IC50, inhibition of PfFNT-mediated L-[14C]lactate transport
T2 construct: expressed in transfected cells; host or cells: Xenopus laevis oocytes (cRNA microinjected, 30 ng)
Protocol: as §4, §5

[6] = test system: PfFNT^Gly107Ser mutant parasites (MMV007839-selected culture B); assay: L-[14C]lactate uptake by isolated PfFNT Gly107Ser mutant parasites; settings: read-out: IC50, inhibition of L-[14C]lactate transport, pH 6.1, 4°C, 20 s, mean ± SEM
[7] = test system: MMV007839-selected culture A (PfFNT Gly107Ser); assay: Parasite proliferation assay, MMV007839-selected culture A; type: cell-based, Plasmodium falciparum
Protocol: as §2, §3

PfENT1 = assay: [3H]hypoxanthine uptake by Xenopus oocytes expressing PfENT1; type: cell-based, Plasmodium falciparum
From the text: as §1
The oocyte expression vectors containing PfFNT, PfENT1 and PfCRT were made previously. The Gly107Ser mutant form of PfFNT was generated through site-directed mutagenesis of the oocyte expression vector containing wild-type (3D7) PfFNT using primers 9 and 10 (S2 Table). Oocytes were harvested from adult female Xenopus laevis frogs and prepared as described previously. cRNA was made using the mMessage mMachine T7 transcription kit and the MEGAclear kit (Ambion) and microinjected into oocytes as outlined elsewhere. The amount of cRNA injected (per oocyte) was 30 ng for PfFNT, 10 ng for PfENT1, and 20 ng for PfCRT. The uptake of radiolabelled substrates was measured 2–5 days post-injection at 27.5°C in ND96 buffer (containing 96 mM NaCl, 2 mM KCl, 1 mM MgCl2, 1.8 mM CaCl2, 10 mM MES and 10 mM Tris-base; pH-adjusted to the value specified in the relevant Figure legends). […] Each experiment used ten oocytes for each condition tested. The influx of the radiolabelled substrate was halted by removing the reaction buffer and washing the oocytes twice in ice-cold ND96 buffer (3.5 mL). The oocytes were then transferred to separate wells of a 96-well plate, lysed with 10% SDS, and the radioactivity measured as described previously.
The data are averaged from four to five independent experiments (performed using oocytes from different frogs) and are shown + SEM. In B, the uptake of [^3H]hypoxanthine (0.36 μM) was measured over 30 min at pH 6.0. […] The data are averaged from three to six independent experiments (performed using oocytes from different frogs) and are shown + SEM. […] (TIF) Click here for additional data file.

3D7 parasites = settings: ref http://www.mmv.org/research-development/malaria-box-supporting-information; read-out: IC50 against 3D7 parasites, other groups; cited from earlier work

T2 sequence (O77389 whole entry): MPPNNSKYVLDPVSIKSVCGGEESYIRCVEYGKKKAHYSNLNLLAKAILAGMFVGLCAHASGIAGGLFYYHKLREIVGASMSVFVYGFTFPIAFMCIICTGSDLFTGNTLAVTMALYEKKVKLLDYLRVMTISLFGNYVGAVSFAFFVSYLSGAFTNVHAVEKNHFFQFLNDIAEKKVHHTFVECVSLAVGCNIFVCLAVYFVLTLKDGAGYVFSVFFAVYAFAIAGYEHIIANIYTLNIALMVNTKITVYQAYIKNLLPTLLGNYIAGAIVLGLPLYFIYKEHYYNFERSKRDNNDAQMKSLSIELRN

## O=C1CC(O)(C(F)(F)C(F)(F)F)Oc2ccccc21 (stereo not drawn) [MMV000972]
[1]; 0.5 μM
  Inhibition of L-[14C]lactate influx: complete inhibition
[1]; 2 μM
  Inhibition of L-[14C]lactate uptake: complete inhibition
[2]
  Toxicity in Malaria Box toxicity testing: display toxicity in some assays
[3]
  Effect on transport of [3H]chloroquine via PfCRT: not inhibiting
[4]
  IC50: 59.7 ± 1.4 µM
Dd2 parental parasites
  IC50: 0.049 ± 0.014 µM
non-injected oocytes
  Effect on L-[14C]lactate transport into control (non-injected) oocytes: no changes
PfFNT^Gly107Ser
  IC50: 6.3 ± 0.9 µM
Dd2 parent parasites
  IC50: 1.8 ± 0.2 µM
[5]; 2.5 μM pre-treatment, 10 mM L-lactate, 4°C
  Lactate-induced abrupt acidification of parasite cytosol after pre-treatment: no such abrupt acidification
[5]; 2.5 μM, 4°C, 10 mM L-lactate, mean ± SEM, n = 3
  Rate of cytosolic acidification after addition of lactate: 0.015 ± 0.006 pH unit/min
[5]; 2.5 μM, 4°C, mean ± SEM, n = 3
  Rate of cytosolic acidification before addition of lactate: 0.012 ± 0.003 pH unit/min
[5]; 2.5 μM, glucose (22 mM) restored to glucose-deprived parasites, gradual alkalinisation after initial acidification of ~2 min
  Cytosolic pH restored after restoration of glucose: approximately 7.1
[5]; glucose-containing medium, 37°C (Fig 2B,C: 1 μM)
  Effect on cytosolic pH in glucose-containing medium: cytosolic acidification
Native PfFNT
  IC50: 0.05 ± 0.001 µM
[6]
  IC50: 15.2 ± 1.9 µM
[7]; MMV007839-selected culture A, mean ± SEM, read-out: IC50 value, growth inhibition
  IC50: 59.6 ± 0.4 µM
[7]; both MMV007839-selected cultures (A and B) vs Dd2 parent
  Fold increase of growth IC50 relative to Dd2 parent: > 30 fold
PfENT1; 1 μM and 4 μM, pH 6.0, 30 min
  Inhibition of [3H]hypoxanthine uptake by PfENT1-expressing oocytes: not inhibiting
PfENT1; 1 μM, P < 0.05
  Effect on [3H]hypoxanthine uptake by PfENT1-expressing oocytes: slight increase
3D7 parasites
  IC50: 2.6 µM
